# Values joined by “and” are separate entries in the source; they are usually repeats but may differ in a detail not shown here. Equal values may be shown once. Read-outs that look alike come from different tables or passages of the source.
# Tested on: mtrC-lacZ expression
# Format: cell-based, Neisseria gonorrhoeae
# Settings: for β-galactosidase activity, Miller units (single replicate) / β-galactosidase activity, individual replicate: mtrR WT in cis; for β-galactosidase activity, individual replicate: single replicate values, second (right) block; for Miller units: single well; for mtrC-lacZ β-galactosidase activity, Mean: left block of sheet (mtrCDE)
# [1] = second block of sheet (c39-c76), ΔmtrR + mtrR R176E in trans, 6.25 µM
# [2] = second block of sheet (c39-c76), ΔmtrR + mtrR R176E in trans, 12.5 µM
# [3] = second block of sheet (c39-c76), ΔmtrR + mtrR R176E in trans, 25 µM
# [4] = second block of sheet (c39-c76), ΔmtrR + mtrR R176E in trans, 50 µM
smiles,measurement,setting,value
"C[C@]12CC[C@H]3[C@@H](CCC4=CC(=O)CC[C@@]43C)[C@@H]1CC[C@@H]2O [Testosterone, testosterone]","Miller units, Mean","mtrCDE, ΔmtrR, testosterone 100 µM, left block Plate-4",369 Miller units
same,"β-galactosidase activity, Miller units (single replicate)","1 µM, first data set (c15-c36)",149 Miller units and 125 Miller units and 138 Miller units and 141 Miller units
same,"β-galactosidase activity, individual replicate",6.25 µM hormone,103 Miller units and 88 Miller units
same,"β-galactosidase activity, Miller units (single replicate)","6.25 µM, second data set (c53-c74)",73 Miller units and 58 Miller units
same,"β-galactosidase activity, Miller units (single replicate)","10 µM, first data set (c15-c36)",251 Miller units and 213 Miller units and 245 Miller units and 230 Miller units
same,"β-galactosidase activity, individual replicate",12.5 µM hormone,126 Miller units
same,"β-galactosidase activity, Miller units (single replicate)","12.5 µM, second data set (c53-c74)",92 Miller units and 94 Miller units
same,"β-galactosidase activity, individual replicate",25 µM hormone,144 Miller units and 138 Miller units
same,"β-galactosidase activity, Miller units (single replicate)","25 µM, first data set (c15-c36)",283 Miller units and 251 Miller units and 242 Miller units and 281 Miller units
same,"β-galactosidase activity, Miller units (single replicate)","25 µM, second data set (c53-c74)",129 Miller units and 111 Miller units
same,"β-galactosidase activity, individual replicate",50 µM hormone,161 Miller units and 150 Miller units
same,"β-galactosidase activity, Miller units (single replicate)","50 µM, first data set (c15-c36)",237 Miller units and 229 Miller units and 224 Miller units and 225 Miller units
same,"β-galactosidase activity, Miller units (single replicate)","50 µM, second data set (c53-c74)",118 Miller units and 110 Miller units
same,"β-galactosidase activity, Miller units (single replicate)","100 µM, first data set (c15-c36)",228 Miller units and 230 Miller units and 281 Miller units and 254 Miller units
same,"β-galactosidase activity, Mean",[1],60 Miller units
same,"β-galactosidase activity, single replicate",[1],66 Miller units and 62 Miller units and 61 Miller units and 50 Miller units
same,"β-galactosidase activity, Mean",[2],68 Miller units
same,"β-galactosidase activity, single replicate",[2],65 Miller units and 76 Miller units and 70 Miller units and 59 Miller units
same,"β-galactosidase activity, Mean",[3],80 Miller units
same,"β-galactosidase activity, single replicate",[3],70 Miller units and 77 Miller units and 92 Miller units and 80 Miller units
same,"β-galactosidase activity, Mean",[4],83 Miller units
same,"β-galactosidase activity, single replicate",[4],89 Miller units and 78 Miller units and 94 Miller units and 70 Miller units
same,Miller units,"plate rows 1-4, plate columns 1-6 (first strain), 6.25 µM hormone",96 Miller units and 59 Miller units and 65 Miller units and 57 Miller units
same,Miller units,"plate rows 1-4, plate columns 1-6 (first strain), 12.5 µM hormone",116 Miller units and 66 Miller units and 73 Miller units and 70 Miller units
same,Miller units,"plate rows 1-4, plate columns 1-6 (first strain), 25 µM hormone",132 Miller units and 102 Miller units and 83 Miller units and 75 Miller units
same,Miller units,"plate rows 1-4, plate columns 1-6 (first strain), 50 µM hormone",147 Miller units and 111 Miller units and 107 Miller units and 103 Miller units
same,Miller units,"plate rows 1-4, plate columns 7-12 (second strain), 6.25 µM hormone",119 Miller units and 100 Miller units and 89 Miller units and 76 Miller units
same,Miller units,"plate rows 1-4, plate columns 7-12 (second strain), 12.5 µM hormone",126 Miller units and 101 Miller units and 100 Miller units and 81 Miller units
same,Miller units,"plate rows 1-4, plate columns 7-12 (second strain), 25 µM hormone",155 Miller units and 122 Miller units and 93 Miller units and 79 Miller units
same,Miller units,"plate rows 1-4, plate columns 7-12 (second strain), 50 µM hormone",151 Miller units and 132 Miller units and 101 Miller units and 93 Miller units
same,"β-galactosidase activity, mtrC-lacZ, Mean","strain WT (FA19/pLES94-mtrC), hormone 6.25 µM",141 Miller units
same,"β-galactosidase activity, mtrC-lacZ, Mean","strain WT (FA19/pLES94-mtrC), hormone 12.5 µM",166 Miller units
same,"β-galactosidase activity, mtrC-lacZ, Mean","strain WT (FA19/pLES94-mtrC), hormone 25 µM",178 Miller units
same,"β-galactosidase activity, mtrC-lacZ, Mean","strain WT (FA19/pLES94-mtrC), hormone 50 µM",195 Miller units
same,"mtrC-lacZ β-galactosidase activity, Mean","strain WT, 1 µM hormone",138 Miller units
same,"β-galactosidase activity, Mean","strain WT, 6.25 µM hormone, second (right) untitled block of sheet Figure S10 (mtrC)",81 Miller units
same,"mtrC-lacZ β-galactosidase activity, Mean","strain WT, 10 µM hormone",235 Miller units
same,"mtrC-lacZ β-galactosidase activity, Mean","strain WT, 25 µM hormone",264 Miller units
same,"β-galactosidase activity, Mean","strain WT, 25 µM hormone, second (right) untitled block of sheet Figure S10 (mtrC)",130 Miller units
same,"mtrC-lacZ β-galactosidase activity, Mean","strain WT, 50 µM hormone",229 Miller units
same,"β-galactosidase activity, Mean","strain WT, 50 µM hormone, second (right) untitled block of sheet Figure S10 (mtrC)",134 Miller units
same,"mtrC-lacZ β-galactosidase activity, Mean","strain WT, 100 µM hormone",248 Miller units
same,activation of mtrC,strain producing MtrR R176E,significantly less activation
same,"β-galactosidase activity, mtrC-lacZ, Mean","strain ΔmtrR (FA19 ∆mtrR/pLES94-mtrC), hormone 6.25 µM",265 Miller units
same,"β-galactosidase activity, mtrC-lacZ, Mean","strain ΔmtrR (FA19 ∆mtrR/pLES94-mtrC), hormone 12.5 µM",244 Miller units
same,"β-galactosidase activity, mtrC-lacZ, Mean","strain ΔmtrR (FA19 ∆mtrR/pLES94-mtrC), hormone 25 µM",276 Miller units
same,"β-galactosidase activity, mtrC-lacZ, Mean","strain ΔmtrR (FA19 ∆mtrR/pLES94-mtrC), hormone 50 µM",272 Miller units
same,"β-galactosidase activity, mtrC-lacZ, Mean","strain ΔmtrR + mtrR D171A (pGCC3-mtrR D171A), hormone 6.25 µM",170 Miller units
same,"β-galactosidase activity, mtrC-lacZ, Mean","strain ΔmtrR + mtrR D171A (pGCC3-mtrR D171A), hormone 12.5 µM",175 Miller units
same,"β-galactosidase activity, mtrC-lacZ, Mean","strain ΔmtrR + mtrR D171A (pGCC3-mtrR D171A), hormone 25 µM",170 Miller units
same,"β-galactosidase activity, mtrC-lacZ, Mean","strain ΔmtrR + mtrR D171A (pGCC3-mtrR D171A), hormone 50 µM",162 Miller units
same,"mtrC-lacZ β-galactosidase activity, Mean","strain ΔmtrR + mtrR R176E, 1 µM hormone",178 Miller units
same,"β-galactosidase activity, Mean","strain ΔmtrR + mtrR R176E, 6.25 µM hormone, second (right) untitled block of sheet Figure S10 (mtrC)",60 Miller units
same,"mtrC-lacZ β-galactosidase activity, Mean","strain ΔmtrR + mtrR R176E, 10 µM hormone",206 Miller units
same,"β-galactosidase activity, Mean","strain ΔmtrR + mtrR R176E, 12.5 µM hormone, second (right) untitled block of sheet Figure S10 (mtrC)",68 Miller units
same,"β-galactosidase activity, Mean","strain ΔmtrR + mtrR R176E, 25 µM hormone, second (right) untitled block of sheet Figure S10 (mtrC)",80 Miller units
same,"mtrC-lacZ β-galactosidase activity, Mean","strain ΔmtrR + mtrR R176E, 50 µM hormone",224 Miller units

# — publication PMC10850145, “Hormonal steroids induce multidrug resistance and stress response genes in Neisseria gonorrhoeae by binding to MtrR” (Nature Communications, 2024)
